Experimental data: ChEMBL document CHEMBL1148896, “BI-32169, a bicyclic 19-peptide with strong glucagon receptor antagonist activity from Streptomyces sp” (J Nat Prod, 2004)
Bridge positions count the residues as written; N and C are the ends. Peptide text beside a SMILES is read from it. I, II: the chains in the order shown.

The compounds below were run against Glucagon receptor (Homo sapiens, UniProt P47871) (assay: Antagonist activity at human glucagon receptor expressed in BHK21 cells assessed as inhibition of glucagon-induced cAMP elevation by RIA).
Sequence of Glucagon receptor (P47871 whole entry): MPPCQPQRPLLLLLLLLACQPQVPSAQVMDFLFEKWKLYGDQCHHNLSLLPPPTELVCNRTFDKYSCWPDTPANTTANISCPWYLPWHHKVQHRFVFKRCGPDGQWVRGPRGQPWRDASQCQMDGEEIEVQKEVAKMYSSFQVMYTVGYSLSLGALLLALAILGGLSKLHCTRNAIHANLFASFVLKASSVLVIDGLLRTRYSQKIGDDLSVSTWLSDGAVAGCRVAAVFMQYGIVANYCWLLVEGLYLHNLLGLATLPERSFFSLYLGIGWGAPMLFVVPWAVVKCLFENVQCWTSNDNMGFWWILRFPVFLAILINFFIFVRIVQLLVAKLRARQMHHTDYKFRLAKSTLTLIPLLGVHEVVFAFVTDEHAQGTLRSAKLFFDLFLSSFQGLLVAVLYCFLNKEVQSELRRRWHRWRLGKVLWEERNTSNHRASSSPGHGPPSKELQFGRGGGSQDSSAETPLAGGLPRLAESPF
Format: functional, cell-based, BHK-21
With `CC[C@H](C)[C@@H]1NC(=O)[C@@H]2CC(=O)NCC(=O)N[C@@H](CC(C)C)C(=O)N3CCC[C@H]3C(=O)N[C@@H](Cc3c[nH]c4ccccc34)C(=O)NCC(=O)N[C@@H](CSSC[C@@H](C(=O)O)NC(=O)[C@H](C)NC(=O)[C@H](Cc3c[nH]c4ccccc34)NC(=O)[C@@H]3CCCN3C(=O)[C@H]([C@@H](C)O)NC(=O)[C@H](CC(N)=O)NC(=O)[C@H](Cc3c[nH]c4ccccc34)NC(=O)CNC(=O)[C@@H]3CCCN3C1=O)C(=O)N1CCC[C@H]1C(=O)N[C@@H](CO)C(=O)N2` (GLPWGCPSDIPGWNTPWAC-OH; disulfide 6-19; lactam N-9) the IC50 was 0.44 µM. Work on `CC[C@H](C)[C@@H]1NC(=O)C[C@@H]2NC(=O)[C@H](CO)NC(=O)[C@@H]3CCCN3C(=O)[C@H](CSSC[C@@H](C(=O)OC)NC(=O)[C@H](C)NC(=O)[C@H](Cc3c[nH]c4ccccc34)NC(=O)[C@@H]3CCCN3C(=O)[C@H]([C@@H](C)O)NC(=O)[C@H](CC(N)=O)NC(=O)[C@H](Cc3c[nH]c4ccccc34)NC(=O)CNC(=O)[C@@H]3CCCN3C1=O)NC(=O)CNC(=O)[C@H](Cc1c[nH]c3ccccc13)NC(=O)[C@@H]1CCCN1C(=O)[C@H](CC(C)C)NC(=O)CNC2=O` (I: IPGWNTPWAC-OMe / II: cyclo(CPSDGLPWG); disulfide I:10-II:1; amide I:N-II:4) yielded an IC50 of 0.32 µM. In the case of `CC1CC(=O)c2c(cc3c(-c4c(O)cc(O)c5c(O)c6c(cc45)OC(C)CC6=O)c(O)cc(O)c3c2O)O1` (stereo not drawn) [CEPHALOCHROMIN], the IC50 is reported as 20 µM.
